Experimental data: PubChem BioAssay AID2060903 (Molecular Pharmacology Branch, DTP, NCI, 2025)

Test system: 377384-186-R-J1-PDC complex spheroid viability
Test: Anticancer human tumor 377384-186-R-J1-PDC patient-derived pancreatic carcinoma cell line growth inhibition [RAS]
Settings: for IC50: curve of first compound; for viability, T/C: stronger effect = lower value
Procedure, shortened: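 Tumour cells grown as complex spheroids with HUVEC endothelial cells and mesenchymal stem cells, treated with RAS pathway inhibitor combinations. Each agent spans half-log steps from near clinical Cmax, or 10 microM where Cmax is unknown.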
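Further: spheroids exposed to compounds for seven days before readout.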

Question: Which IC50 (second compound 0.00316 µM) does the source give for `C[C@@H](NC(=O)c1ncnc(N)c1Cl)c1ncc(C(=O)Nc2cc(C(F)(F)F)c(Cl)cn2)s1` + C=CC(=O)N1CCN(c2nc(OCC3CCCN3C)nc3c(F)c(-c4nc(N)cc(C)c4C(F)(F)F)c(Cl)cc23)C(C)C1 here?
Answer: The IC50 was > 10 µM.

Question: What about the IC50 (second compound 0.01 µM) of the same molecule?
Answer: The IC50 was > 10 µM.

Question: And the IC50 (second compound 0.0316 µM)?
Answer: Its IC50 is > 10 µM.

Question: And the IC50 (second compound 0.1 µM)?
Answer: Its IC50 is > 10 µM.

Question: And the IC50 (second compound 0.316 µM)?
Answer: The IC50 was > 10 µM.

Question: And the IC50 (second compound 1 µM)?
Answer: The IC50 was > 10 µM.

Question: What about the viability, T/C (second compound 0.00316 µM, first compound 0.0316 µM) of the same molecule?
Answer: The viability, T/C was 90%.

Question: And the viability, T/C (second compound 0.00316 µM, first compound 0.1 µM)?
Answer: Its viability, T/C is 85.2%.

Question: And the viability, T/C (second compound 0.00316 µM, first compound 0.316 µM)?
Answer: Its viability, T/C is 83.8%.

Question: What about the viability, T/C (second compound 0.00316 µM, first compound 1 µM) of the same molecule?
Answer: Its viability, T/C is 108%.

Question: And the viability, T/C (second compound 0.00316 µM, first compound 3.16 µM)?
Answer: The viability, T/C was 120%.

Question: What about the viability, T/C (second compound 0.00316 µM, first compound 10 µM) of the same molecule?
Answer: The viability, T/C was 122%.

Question: And the viability, T/C (second compound 0.01 µM, first compound 0.0316 µM)?
Answer: Its viability, T/C is 98.5%.

Question: And the viability, T/C (second compound 0.01 µM, first compound 0.1 µM)?
Answer: The viability, T/C was 86.3%.

Question: And the viability, T/C (second compound 0.01 µM, first compound 0.316 µM)?
Answer: The viability, T/C was 102%.

Question: What about the viability, T/C (second compound 0.01 µM, first compound 1 µM) of the same molecule?
Answer: The viability, T/C was 118%.

Question: And the viability, T/C (second compound 0.01 µM, first compound 3.16 µM)?
Answer: Its viability, T/C is 122%.

Question: What about the viability, T/C (second compound 0.01 µM, first compound 10 µM) of the same molecule?
Answer: The viability, T/C was 131%.

Question: What about the viability, T/C (second compound 0.0316 µM, first compound 0.0316 µM) of the same molecule?
Answer: Its viability, T/C is 98.4%.

Question: What about the viability, T/C (second compound 0.0316 µM, first compound 0.1 µM) of the same molecule?
Answer: The viability, T/C was 87.8%.

Question: And the viability, T/C (second compound 0.0316 µM, first compound 0.316 µM)?
Answer: Its viability, T/C is 101%.

Question: And the viability, T/C (second compound 0.0316 µM, first compound 1 µM)?
Answer: The viability, T/C was 118%.

Question: And the viability, T/C (second compound 0.0316 µM, first compound 3.16 µM)?
Answer: Its viability, T/C is 116%.

Question: And the viability, T/C (second compound 0.0316 µM, first compound 10 µM)?
Answer: Its viability, T/C is 130%.

Question: What about the viability, T/C (second compound 0.1 µM, first compound 0.0316 µM) of the same molecule?
Answer: The viability, T/C was 84%.

Question: And the viability, T/C (second compound 0.1 µM, first compound 0.1 µM)?
Answer: The viability, T/C was 103%.

Question: What about the viability, T/C (second compound 0.1 µM, first compound 0.316 µM) of the same molecule?
Answer: The viability, T/C was 92.3%.

Question: What about the viability, T/C (second compound 0.1 µM, first compound 1 µM) of the same molecule?
Answer: The viability, T/C was 115%.

Question: And the viability, T/C (second compound 0.1 µM, first compound 3.16 µM)?
Answer: Its viability, T/C is 120%.

Question: What about the viability, T/C (second compound 0.1 µM, first compound 10 µM) of the same molecule?
Answer: Its viability, T/C is 124%.

Question: What about the viability, T/C (second compound 0.316 µM, first compound 0.0316 µM) of the same molecule?
Answer: The viability, T/C was 98.3%.

Question: And the viability, T/C (second compound 0.316 µM, first compound 0.1 µM)?
Answer: The viability, T/C was 87.1%.

Question: And the viability, T/C (second compound 0.316 µM, first compound 0.316 µM)?
Answer: The viability, T/C was 119%.

Question: And the viability, T/C (second compound 0.316 µM, first compound 1 µM)?
Answer: Its viability, T/C is 115%.

Question: What about the viability, T/C (second compound 0.316 µM, first compound 3.16 µM) of the same molecule?
Answer: The viability, T/C was 143%.

Question: What about the viability, T/C (second compound 0.316 µM, first compound 10 µM) of the same molecule?
Answer: The viability, T/C was 134%.

Question: What about the viability, T/C (second compound 1 µM, first compound 0.0316 µM) of the same molecule?
Answer: The viability, T/C was 93.9%.

Question: And the viability, T/C (second compound 1 µM, first compound 0.1 µM)?
Answer: Its viability, T/C is 109%.

Question: What about the viability, T/C (second compound 1 µM, first compound 0.316 µM) of the same molecule?
Answer: The viability, T/C was 110%.

Question: And the viability, T/C (second compound 1 µM, first compound 1 µM)?
Answer: The viability, T/C was 115%.

Question: And the viability, T/C (second compound 1 µM, first compound 3.16 µM)?
Answer: The viability, T/C was 122%.

Question: And the viability, T/C (second compound 1 µM, first compound 10 µM)?
Answer: Its viability, T/C is 118%.

Question: Which results are given for `C[C@@H](NC(=O)c1ncnc(N)c1Cl)c1ncc(C(=O)Nc2cc(C(F)(F)F)c(Cl)cn2)s1` + CCn1c(-c2cc(N3CCN(C)CC3)cnc2C(C)OC)c2c3cc(ccc31)-c1csc(n1)CC(NC(=O)C1CC1C)C(=O)N1CCCC(N1)C(=O)OCC(C)(C)C2?
Answer: IC50 (second compound 0.000949 µM): > 10 µM; IC50 (second compound 0.003 µM): < 0.0316 µM; IC50 (second compound 0.00949 µM): < 0.0316 µM; IC50 (second compound 0.03 µM): < 0.0316 µM; IC50 (second compound 0.0949 µM): < 0.0316 µM; IC50 (second compound 0.3 µM): < 0.0316 µM; viability, T/C (second compound 0.000949 µM, first compound 0.0316 µM): 60.5%; viability, T/C (second compound 0.000949 µM, first compound 0.1 µM): 68%; viability, T/C (second compound 0.000949 µM, first compound 0.316 µM): 62.4%; viability, T/C (second compound 0.000949 µM, first compound 1 µM): 69.9%; viability, T/C (second compound 0.000949 µM, first compound 3.16 µM): 65.2%; viability, T/C (second compound 0.000949 µM, first compound 10 µM): 49%; viability, T/C (second compound 0.003 µM, first compound 0.0316 µM): 39.1%; viability, T/C (second compound 0.003 µM, first compound 0.1 µM): 36.5%; viability, T/C (second compound 0.003 µM, first compound 0.316 µM): 34.7%; viability, T/C (second compound 0.003 µM, first compound 1 µM): 40.3%; viability, T/C (second compound 0.003 µM, first compound 3.16 µM): 29.3%; viability, T/C (second compound 0.003 µM, first compound 10 µM): 19.9%; viability, T/C (second compound 0.00949 µM, first compound 0.0316 µM): 8.23%; viability, T/C (second compound 0.00949 µM, first compound 0.1 µM): 12.1%; viability, T/C (second compound 0.00949 µM, first compound 0.316 µM): 12.7%; viability, T/C (second compound 0.00949 µM, first compound 1 µM): 11.6%; viability, T/C (second compound 0.00949 µM, first compound 3.16 µM): 14%; viability, T/C (second compound 0.00949 µM, first compound 10 µM): 11.2%; viability, T/C (second compound 0.03 µM, first compound 0.0316 µM): 2.09%; viability, T/C (second compound 0.03 µM, first compound 0.1 µM): 2.73%; viability, T/C (second compound 0.03 µM, first compound 0.316 µM): 3.94%; viability, T/C (second compound 0.03 µM, first compound 1 µM): 4.72%; viability, T/C (second compound 0.03 µM, first compound 3.16 µM): 3.74%; viability, T/C (second compound 0.03 µM, first compound 10 µM): 2.97%; viability, T/C (second compound 0.0949 µM, first compound 0.0316 µM): 2.41%; viability, T/C (second compound 0.0949 µM, first compound 0.1 µM): 2.22%; viability, T/C (second compound 0.0949 µM, first compound 0.316 µM): 2.96%; viability, T/C (second compound 0.0949 µM, first compound 1 µM): 3.02%; viability, T/C (second compound 0.0949 µM, first compound 3.16 µM): 2.41%; viability, T/C (second compound 0.0949 µM, first compound 10 µM): 1.87%; viability, T/C (second compound 0.3 µM, first compound 0.0316 µM): 1.66%; viability, T/C (second compound 0.3 µM, first compound 0.1 µM): 2.36%; viability, T/C (second compound 0.3 µM, first compound 0.316 µM): 2.7%; viability, T/C (second compound 0.3 µM, first compound 1 µM): 2.88%; viability, T/C (second compound 0.3 µM, first compound 3.16 µM): 2.27%; viability, T/C (second compound 0.3 µM, first compound 10 µM): 2.12%
